# Measured values: US20170165282A1, “USE OF BETA-NICOTINAMIDE MONONUCLEOTIDE IN PREPARATION OF DRUGS FOR PREVENTING AND TREATING ARTERIOSCLEROSIS AND CARDIO-CEREBROVASCULAR DISEASES, AND DRUGS CONTAINING THE SAME” (BONTAC BIO-ENGINEERING (SHENZHEN) CO., LTD, priority 2015, published 2017)
# What was measured:
# [1] = tested on: patients having cardio-cerebrovascular diseases resulting from arteriosclerosis; experiment: Clinical trial in patients with cardio-cerebrovascular diseases resulting from arteriosclerosis; format: in vivo, human; conditions: for Total effective rate: excluding the withdrawing patients
# Source text: 300 patients (male:female 1:1, aged 35-78 years and 57.5 years on average, and having a course of disease of the shortest 1.5 years, the longest 7 years, and 4.6 years on average) diagnosed as having cardio-cerebrovascular diseases resulting from arteriosclerosis were selected at random as subjects for clinical observation. The patients were assigned to a group A, a group B, and a group C at random, each group having 100 patients.
# Group A: The patients were orally administered with NMN at a dosage of 10 mg/kg body weight before or after meals every day, and the diet was controlled as desired.
# Group B: The patients were orally administered with NMN at a dosage of 10 mg/kg body weight and with NR at a dosage of 2 mg/kg body weight before or after meals every day, and the diet was controlled as desired.
# Group C: The patients were intramusculary injected with NMN at a dosage of 10 mg/kg body weight and with NR at a dosage of 3 mg/kg body weight before or after meals every day, and the diet was controlled as desired.
# (1) Obvious effectiveness: The health is built up, the body is powerful, the blood lipid and blood pressure drop to normal levels, the palpitation, chest pain, chest tightness, headache, dizziness, decreased vision, decreased memory, insomnia and dreamful sleep, and other clinical symptoms are obvious alleviated.
# (2) Effectiveness: The health is built up, the blood lipid and blood pressure drop slightly, the palpitation, chest pain, chest tightness, headache, dizziness, decreased vision, decreased memory, insomnia and dreamful sleep, and other clinical symptoms are alleviated to some extent.
# (3) Ineffectiveness: There is no obvious improvement in the clinical symptoms.
# [2] = tested on: arteriosclerosis (lesion of the aorta) in guinea pigs fed on high-fat diet; experiment: Guinea pig high-fat diet arteriosclerosis model, lesion area of aorta (Sudan IV staining); format: in vivo
# Protocol: 80 SPF healthy guinea pigs (female:male 1:1) having a body weight of 250-300 g, were assigned to 8 groups at random, each group having 10 animals. The groups include:
# (1) a normal control group, fed on basal diet, and allowed to free access to water during experiment;
# (2) a high fat control group, fed on high-fat diet, and allowed to free access to water during experiment;
# (3) a high fat prevention group, fed on high-fat diet, dosed with 10 mg NMN/kg body weight by gavage every day, and allowed to free access to water during experiment;
# (4) a low-dose NMN group, fed on high-fat diet, dosed with 0.1 mg NMN/kg body weight by gavage every day from week 7, and allowed to free access to water during experiment;
# (5) a medium-dose NMN group, fed on high-fat diet, dosed with 10 mg NMN/kg body weight by gavage every day from week 7, and allowed to free access to water during experiment;
# (6) a high-dose NMN group, fed on high-fat diet, dosed with 20 mg NMN/kg body weight by gavage every day from week 7, and allowed to free access to water during experiment;
# (7) NMN+NR gavage group: fed on high-fat diet, dosed with 10 mg NMN/kg body weight and 1 mg NR/kg body weight by gavage every day from week 7, and allowed to free access to water during experiment.
# (8) NMN+NR injection group: fed on high-fat diet, dosed with 10 mg NMN/kg body weight and 5 mg NR/kg body weight by intramuscular injection every day from week 7, and allowed to free access to water during experiment.
# The formulation of the high-fat diet includes 83% basal diet, 2% cholesterol, and 15% lard oil.
# At the end of week 10, all the experimental animals was fasted (allowed to access to water) for 12 hrs and then sacrificed. The aorta was isolated, dissected longitudinally along the midline of the anterior wall, and stained with Sudan IV. […] The lesion area pathologically measured and the total endangium area were quantified, and the degree of arteriosclerosis was expressed by percentages of the lesion area relative to the total endangium area of the aorta.
# Statistical analysis: All the experimental data is analyzed by SPSS13.0 Statistics software. The measurement data is expressed as x±s, and t test is applied to check the statistical significance. Where P<0.05, there is statistical significance.
# [3] = Group A: oral NMN 10 mg/kg every day, after 1 month
# [4] = Group A: oral NMN 10 mg/kg every day, after 1 month, 100 patients
structure (smiles),measurement,setting,value
"NC(=O)c1ccc[n+]([C@@H]2O[C@H](COP(=O)([O-])O)[C@@H](O)[C@H]2O)c1 [NMN, β-nicotinamide mononucleotide]",Time after administration at which patients with mild disease are cured,[1]; Group A: oral NMN 10 mg/kg body weight every day,7 days
same,Patients showing obvious effectiveness,[1]; [3],67 out of 100 patients
same,Patients showing effectiveness,[1]; [4],28 patients
same,Patients showing ineffectiveness,[1]; [4],4 patients
same,Total effective rate,[1]; [3],96%
same,Total effective rate,"[1]; Group A: oral NMN 10 mg/kg every day, after 1 month, listed as β-nicotinamide mononucleotide",up to 96%
same,Rate of lesion area of aorta (%),"[2]; high fat prevention group: high-fat diet, 10 mg NMN/kg body weight by gavage every day, end of week 10, x±s",13 ± 2%
same,Rate of lesion area of aorta (%),"[2]; high-dose: high-fat diet, 20 mg NMN/kg by gavage every day from week 7, end of week 10, x±s",18 ± 4%
same,Rate of lesion area of aorta (%),"[2]; low-dose: high-fat diet, 0.1 mg NMN/kg by gavage every day from week 7, end of week 10, x±s",58 ± 5%
same,Rate of lesion area of aorta (%),"[2]; medium-dose: high-fat diet, 10 mg NMN/kg by gavage every day from week 7, end of week 10, x±s",27 ± 3%
